Assay results: patent publication US20210238169A1, “PROCESS FOR PREPARING A COMPOUND OF FORMULA (XIII)” (PULMOCIDE LIMITED, priority 2014, published 2021)
In brackets after ≈: the same amount, converted by molar mass. Where two headings read alike, the source gives them in different places.

Columns and labels:
[1] = test system: Aspergillus fumigatus (NCPF2010); assay: Resazurin-microtitre assay of planktonic fungal growth; format: cell-based
Procedure: This assay was conducted using a modified, published method (Monteiro et al., 2012). Spores of Aspergillus fumigatus (NCPF2010, Public Health England, Wiltshire) were cultured in Sabouraud dextrose agar for 3 days. A stock spore suspension was prepared from a Sabouraud dextrose agar culture by washing with PBS-tween (10 mL; PBS containing 0.05% Tween-20, 100 U/mL Penicillin and 100 U/mL Streptomycin). The spore count was assessed using a Neubauer haemocytometer and, using PBS, adjusted to 10^6 spores/mL. A working suspension of spores (10^4 spores/mL) was prepared in filter sterilised MOPS RPMI-1640 (50 mL; RPMI-1640 containing 2 mM L-glutamine, 2% glucose and 0.165 M MOPS, buffered to pH 7 with NaOH). Resazurin sodium salt (100 μL of 1% solution; Sigma-Aldrich, Dorset, UK) was added to the spore suspension and mixed well. The spore suspension-resazurin mixture (100 μL/well) was added to 384-well plates (Catalogue number 353962, BD Falcon, Oxford, UK). Simultaneously, test compounds (0.5 μL DMSO solution) were added to 100 μL of the spore-resazurin mixture in quadruplicate to provide a final DMSO solution of 0.5% using an Integra VIAFLO 96 (Intergra, Zizers, Switzerland). For non-spore control wells, MOPS-RPMI-resazurin solution (100 μL) was added instead of the spore-resazurin mixture. The plate was covered with a Breathe Easier membrane (Catalogue No Z763624, Sigma-Aldrich, Dorset, UK), and incubated (35° C., 5% CO2) until fluorescence in the inoculated wells was double that of the control wells (around 24 hr). The fluorescence of each well (545 nm (excitation)/590 nm (emission), gain 800, focal height 5.5 mm) was determined using a multi-scanner (Clariostar: BMG, Buckinghamshire, UK). The percentage inhibition for each well was calculated and the MIC50, MIC75 and MIC90 values were calculated from the concentration-response curve generated for each test compound.

BEAS2B cells = assay: Cell viability: resazurin assay; format: cell-based, human; conditions: n = 1-5
Procedure: (§1) BEAS2B cells were seeded in 384-well plates (100 μL; 3000/well/; BD Falcon, Catalogue No 353962) in RPMI-LHC8 (RPMI-1640 and LHC8 media combined in equal proportions) one day before experimentation. For cell-free control wells, RPMI-LHC8 (100 μL) was added. Test compounds (0.5 μL of a DMSO solution) were added to give a final DMSO concentration of 0.5% using an Integra VIAFLO 96 (Integra, Zizers, Switzerland). BEAS2B cells were incubated with each test compound for 1 day (37° C./5% CO2 in RPMI-LHC8). After addition of resazurin stock solution (5 μL, 0.04%) the plates were incubated for a further 4 hr (37° C./5% CO2). The fluorescence of each well at 545 nm (excitation) and 590 nm (emission) was determined using a multi-scanner (Clariostar: BMG Labtech). The percentage loss of cell viability was calculated for each well relative to vehicle (0.5% DMSO) treatment. Where appropriate, a CC50 value was calculated from the concentration-response curve generated from the concentration-response curve for each test compound.

[2] = test system: Aspergillus fumigatus isolates; assay: Broth microdilution assay of planktonic fungal growth (modified EUCAST); format: cell-based; conditions: read-out: MIC75
Procedure: This assay was conducted using a modified method published by EUCAST (Rodriguez-Tudela et al., 2008). Spores of Aspergillus fumigatus (NCPF2010, NCPF7010 (Methionine 220 mutation), NCPF7099 (Glycine G54 mutation) from Public Health England, Wiltshire; TR34/L98H mutants from St Louis Hospital, Paris, France) were cultured in Sabouraud dextrose agar for 3 days. A stock spore suspension was prepared from a Sabouraud dextrose agar culture by washing with PBS-tween (10 mL; PBS containing 0.05% Tween-20, 100 U/mL Penicillin and 100 U/mL Streptomycin). The spore count was assessed using a Neubauer haemocytometer and then adjusted to 10^6 spores/mL with PBS. A working suspension of spores (2×10^5 spores/mL) was prepared in filter sterilised, BSA MOPS RPMI-1640 (50 mL; RPMI-1640 containing 2 mM L-glutamine, 0.5% BSA, 2% glucose, 0.165 M MOPS, buffered to pH 7 with NaOH). For the assay, BSA MOPS RPMI-1640 (50 μL/well) was added throughout the 384-well plate (Catalogue number 353962, BD Falcon, Oxford, UK) first. Test compounds (0.5 μL DMSO solution) were then added in quadruplicate using an Integra VIAFLO 96 (Integra, Zizers, Switzerland), and mixed well using a plate mixer. Subsequently 50 μL of the working spore suspension prepared above was added to all wells except non-spore control wells. For non-spore control wells, BSA MOPS-RPMI solution (50 μL/well) was added instead. The plate was covered with a plastic lid, and incubated (35° C. with ambient air) for 48 hr. The OD of each well at 530 nm was determined using a multi-scanner (Clariostar: BMG, Buckinghamshire, UK). The percentage inhibition for each well was calculated and the MIC50, MIC75 and MIC90 values were calculated from the concentration-response curve generated for each test compound.

[3] = test system: Aspergillus fumigatus isolates; assay: as above; format: cell-based; conditions: isolate NCPF7100, broth microdilution, read-out: MIC75
Aspergillus fumigatus = Aspergillus fumigatus infection of BEAS2B bronchial epithelial cells (GM in supernatant); format: cell-based
Procedure: BEAS2B cells were seeded in 96-well plates (100 μL; 30,000 cells/well; Catalogue No 3596, Sigma Aldrich, Dorset, UK) in 10% FBS RPMI-1640 and were then incubated (37° C., 5% CO2) for one day before experimentation. Test compounds (0.5 μL DMSO solution) or vehicle (DMSO) were added to each well to give a final DMSO concentration of 0.5%. BEAS2B cells were incubated with test compounds for 1 hr (35° C., 5% CO2) before infection with Aspergillus fumigatus (20 μL; Public Health England) conidia suspension (0.5×10^5/ml in 10% FBS RPMI-1640). The plate was incubated for 24 hr (35° C., 5% CO2). Supernatant (50 μL) was collected and transferred to a PCR plate (Catalogue No L1402-9700, Starlab, Milton Keynes, UK), which was frozen (−20° C.) until use. After thawing, supernatant (5 μL) was diluted 1:20 by adding R7-PBS solution (95 μL; 1:4 R7 to PBS; Bio-Rad Laboratories, Redmond, Wash., USA). GM levels in these samples (50 μL) were measured using Platelia GM-EIA kits (Bio-Rad Laboratories, Redmond, Wash., USA). The percentage inhibition for each well was calculated and the IC50 value was calculated from the concentration-response curve generated for each test compound.

[4] = Cell viability: resazurin assay; format: cell-based, human; conditions: human, BEAS2B cells; n = 1-5
Procedure: as §1

Row | Structure (SMILES) | Planktonic fungal growth MIC50 [1] | Planktonic fungal growth MIC75 [1] | CC50 (BEAS2B cells) | MIC ([2]; isolate L98H, broth microdilution) | MIC ([2]; isolate NCPF2010, broth microdilution) | MIC ([2]; isolate NCPF7099, broth microdilution) | MIC [3] | MIC50 (Aspergillus fumigatus) | CC50 at 1 day [4] | MIC ([2]; Aspergillus fumigatus) | MIC ([2]; Aspergillus fumigatus, isolate NCPF2010, broth microdilution) | MIC ([2]; Aspergillus fumigatus, isolate NCPF7099, broth microdilution) | MIC ([3]; Aspergillus fumigatus)
1 | C[C@@H]1[C@H](O)[C@@H](C)/C=C/C=C/C=C/C=C/C=C/C=C/C=C/[C@H](O[C@@H]2O[C@H](C)[C@@H](O)[C@H](N)[C@@H]2O)C[C@@H]2O[C@](O)(C[C@@H](O)C[C@@H](O)[C@H](O)CC[C@@H](O)C[C@@H](O)CC(=O)O[C@H]1C)C[C@H](O)[C@H]2C(=O)O [Amphotericin B] | 0.0285 µM | 0.0644 µM | 977 nM | 0.209 µM (≈ 0.193 µg/mL) | 0.382 µM (≈ 0.353 µg/mL) | 0.365 µM (≈ 0.337 µg/mL) | >1.08 µM |  |  |  |  |  | 
2 | [2H]c1c([2H])c(NC(=O)c2ccc(N3CCN(c4ccc(OC[C@@H]5CO[C@@](Cn6cncn6)(c6ccc(F)cc6F)C5)c(C)c4)CC3)cc2)c([2H])c([2H])c1F [Compound (I)•4[^2H], 4-(4-(4-(((3R,5R)-5-((1H-1,2,4-triazol-1-yl)methyl)-5-(2,4-difluorophenyl)tetrahydrofuran-3-yl)methoxy)-3-methylphenyl)piperazin-1-yl)-N-(4-fluorophenyl-2,3,5,6-d4)benzamide] |  |  |  |  |  |  |  | 0.00315 µM (≈ 0.00216 µg/mL) | > 14600 nM | 0.07 µM (≈ 0.0481 µg/mL) | 0.0147 µM (≈ 0.0101 µg/mL) | 0.0137 µM (≈ 0.00941 µg/mL) | 0.0286 µM (≈ 0.0196 µg/mL)
